Legend:
MDA-MB-231 cells [1] = experiment: Western blotting of apoptotic proteins; assay type: cell-based, human; details: 12, 24 or 48 hours
Description: (§1) Western Blotting: Cells were treated with various concentrations of α-santalol and incubated for 12, 24 or 48 hours. Cell lysates were made and subjected to western blot analysis to determine the expression of different proteins.

MCF-7 cells [2] = experiment: Western blotting of apoptotic proteins; assay type: cell-based, human; details: 12, 24 or 48 hours
Description: as §1

MDA-MB-231 cells [3] = experiment: Cell cycle analysis, propidium iodide flow cytometry; assay type: cell-based, human; details: 25 μM-75 μM, 12 hours
Description: (§2) Cell Cycle Analysis: After 12 hours of treatment with alpha-santalol, cells were fixed with 70% ethanol in PBS, treated with RNaseA, followed by staining with propidium iodide. Cells were analyzed by flow cytometry to determine cell-cycle distribution.

MCF-7 cells [4] = experiment: as above; assay type: cell-based, human; details: 25 μM-75 μM, 12 hours
Description: as §2

MDA-MB-231 cells [5] = experiment: MTT assay (cell viability); assay type: cell-based, human; details: different concentrations and time points
Description: (§3) MTT Assay: After treatment with different concentrations of α-santalol for different time points, cells were incubated with MTT and subsequently solubilized in DMSO. Absorbance was measured at 570 nm.

MCF-7 cells [6] = experiment: MTT assay (cell viability); assay type: cell-based, human; details: different concentrations and time points
Description: as §3

MDA-MB-231 cells [7] = experiment: BrdU cell proliferation ELISA; assay type: cell-based, human; details: 24 and 48 hours
Description: (§4) BrdU Cell Proliferation ELISA: Used to quantitate cell proliferation based on the measurement of Brdu incorporation during DNA synthesis in proliferating cells. At the end of 24 and 48 hours of treatment, cells were labeled with BrdU, fixed, denatured, and then incubated with Anti-BrdU POD. Absorbance was measured at 405 nm.

MCF-7 cells [8] = experiment: BrdU cell proliferation ELISA; assay type: cell-based, human; details: 24 and 48 hours
Description: as §4

[9] = Penetration of α-santalol into porcine mammary papilla without keratin plug removal (Experiment 25); assay type: in vitro ADME; details: value (SEM), n=3
Description: Experiment procedure—Mammary papillae were setup in FSD and kept for saturation for 12 hours. Then 500 μl of drug formulation was added in the donor. Three 200 μl samples of donor were taken to determine GCMS area of donors. Now 200 μl samples were collected from the receptor on each time point. […] Results may be seen in FIG. 51 and Table 33.

MDA-MB-231 cells [10] = experiment: TUNEL assay and flow cytometry (apoptosis); assay type: cell-based, human
Description: (§5) TUNEL Assay and Flow Cytometry: After incubation with alpha-santalol, cells were fixed with paraformaldehyde and ethanol. DNA strand breaks were labeled with BrdUTP. Brdu incorporation at DNA strand breaks was detected by Alexa Fluor 488 dye-labeled anti-BrdU antibodies. Samples were analyzed by Flow Cytometry.

MCF-7 cells [11] = experiment: TUNEL assay and flow cytometry (apoptosis); assay type: cell-based, human
Description: as §5

[12] = Topical transmammary delivery of tamoxifen with and without α-santalol via porcine mammary papilla (Experiment 27); assay type: in vitro ADME; details: given in combination with α-santalol
Description: From the receptor, 200 μl samples were taken at every time point. After 48 hours, tissues were taken, washed, cut in four sections, weighed and solubilized using the tissue solubilizer. After 24 hours, DPM counts were measured from each section of the tissue using scintillation cocktail.

[13] = 6 hours treatment 48 h disposition study

Tissue retention ([9]; 5% v/v in 2:1 ethanol:PBS, 6 h treatment) | Tissue retention [9, 13] | Tissue retention (% of applied dose) [9, 13] | Tissue retention (% of applied dose) ([9]; 6 h treatment) | Tissue retention ([9]; 48 h treatment) | Tissue retention (% of applied dose) ([9]; 48 h treatment) | Applied dose retained by the tissue [12] | SMILES | Cleavage of apoptotic proteins (western blot) (MDA-MB-231 cells [1]) | Cleavage of apoptotic proteins (western blot) (MCF-7 cells [2]) | Cell cycle distribution (MDA-MB-231 cells [3]) | Cell cycle distribution (MCF-7 cells [4]) | Cell viability (MTT) (MDA-MB-231 cells [5]) | Cell viability (MTT) (MCF-7 cells [6]) | Cell proliferation (BrdU ELISA) (MDA-MB-231 cells [7]) | Cell proliferation (BrdU ELISA) (MCF-7 cells [8]) | Apoptosis (TUNEL, flow cytometry) (MDA-MB-231 cells [10]) | Apoptosis (TUNEL, flow cytometry) (MCF-7 cells [11])
5.21 (0.41) μmole/g tissue | 5.34 (0.52) μmole/g tissue | 2.01 (0.12) % of applied dose | 2.20 (0.19) % of applied dose | 35.52 (3.69) μmole/g tissue | 15.30 (2.20) % of applied dose | – | C/C(=C/CCC1(C)C2CC3C(C2)C31C)CO (stereo not drawn) [alpha-santalol] | caspase-3 and PARP cleavage | PARP cleavage | arrested cell cycles at the G2/M phase | arrested cell cycles at the G2/M phase | inhibition of cell viability and proliferation in a time and dose-dependent manner | inhibition of cell viability and proliferation in a time and dose-dependent manner | inhibition of cell viability and proliferation in a time and dose-dependent manner | inhibition of cell viability and proliferation in a time and dose-dependent manner | significantly induced apoptosis | significantly induced apoptosis
– | – | – | – | – | – | approximately 40% | CC/C(=C(\c1ccccc1)c1ccc(OCCN(C)C)cc1)c1ccccc1 [tamoxifen] | – | – | – | – | – | – | – | – | – | –

— US9220680B2, “Compositions and methods for localized drug delivery through mammary papillae” (South Dakota State University, priority 2012, dated 2015)
